Test results: PMC12521527, “In vivo self-assembled nano-PROTAC for the dual degradation of AR and HSP90 to overcome castration-resistant prostate cancer resistance” (Signal Transduction and Targeted Therapy, 2025)
Numbered stars: 1 amine (or outer) side, 2 acyl side, 3 side chain; on linkers, the order of the positions; unused ones are H or OH. Square brackets hold non-standard residues; d marks the D form. Peptide text beside a SMILES is read from it. * marks the point of attachment. X2 = CC1(C)C(=O)N(c2ccc(C#N)c(C(F)(F)F)c2)C(=S)N1c1ccc(C(=O)*)c(F)c1; X1 = O=C1CCC(N2C(=O)c3cccc(N(CC(=O)[*:2])[*:1])c3C2=O)C(=O)N1; EuK = O=C(O)CC[C@H](NC(=O)N[C@@H](CCCCN*)C(=O)O)C(=O)O; 2Nal = N[C@@H](Cc1ccc2ccccc2c1)C(=O)O

What was measured:
22Rv1 xenograft tumor = assay: Antitumor efficacy in 22Rv1 xenograft mice; type: in vivo, BALB/c nude mice; details: for tumor volume / median survival: n = 6
Text: To evaluate the therapeutic potential and superiority of Psa-AR in prostate cancer, we established subcutaneous xenograft tumor models using AR-mutant 22Rv1 cells.[51] All procedures strictly complied with the Guide for the Care and Use of Laboratory Animals and were approved by the Committee for Animal Research of the National Center for Nanoscience and Technology. When the tumor volume reached ~100 mm³, 22Rv1-bearing mice were randomized into three groups (n = 6/group): the PBS control, Psa-AR, and P-AR groups. Treatments were administered via tail vein injection every other day for five cycles. The tumor volume and body weight were monitored every other day for 20 days (Fig. 6a). […] The individual tumor growth curves for each group are presented in Supplementary Fig. 20. No obvious body weight loss was observed during treatment (Fig. 6c). […] To elucidate the mechanistic basis of tumor suppression, we quantitatively assessed AR and HSP90 protein expression in excised tumor tissues through IF. […] This dual-target degradation profile directly correlates with the observed therapeutic efficacy, validating the assembly driven target engagement and degradation strategy. […] To address the critical limitations of conventional PROTACs, particularly the Hook effect-induced nonlinear pharmacokinetics and narrow therapeutic window. We rigorously evaluated the dose-responsive antitumor efficacy of Psa-AR in 22Rv1 xenograft models. Mice bearing subcutaneous tumors received escalating doses (10, 20, or 30 mg/kg) via intravenous administration every 48 h for five consecutive treatment cycles. The tumor volume and body weight were evaluated for 20 days. Tumor volume was suppressed in a dose-dependent manner, with a mean tumor volume of […], a mean tumor volume of 536 mm^3 at 20 mg/kg and a mean tumor volume of 220 mm^3 at 10 mg/kg (Fig. 6h). The individual tumor growth curves for each group are presented in Supplementary Fig. 21. […] IF analysis of tumor sections provided spatially resolved dose-dependent quantification of AR and HSP90 proteolysis. […] Collectively, the dose-dependent tumor suppression and coordinated target proteolysis observed in the 22Rv1 xenograft model mechanistically validated the therapeutic superiority of in situ self-assembled Psa-AR. To systematically evaluate the therapeutic advantages of the dual-protein targeting strategy of Psa-AR through simultaneous degradation of AR and HSP90 in overcoming tumor drug resistance, this study compared the antitumor efficacy of Psa-AR with that of current clinical regimens (including the AR inhibitor enzalutamide, the HSP90 inhibitor pimitespib, and their combination) in 22Rv1 xenograft models (Fig. 7a). The experimental protocol was designed as follows: When the tumor volume reached ~100 mm³, the tumor-bearing mice were
Fig. 6 In vivo antitumor efficacy of Psa-AR. a Schematic illustration of the tumor inoculation and treatment protocol for 22Rv1 xenograft mice. (n = 6 per group) b Observation of the tumor inhibitory effect on 22Rv1 xenograft mice in PBS, P-AR, or Psa-AR (20 mg/kg in 200 μL of PBS) over 20 days of treatment. c Body weight changes in 22Rv1 xenograft mice in different treatment groups over 20 days. d Kaplan‒Meier survival curves of 22Rv1 xenograft mice in different groups over 20 days of treatment. e Immunofluorescence analysis of AR protein levels in 22Rv1 tumor tissues after treatment with PBS, P-AR, or Psa-AR (20 mg/kg in 200 μL of PBS) for 20 days. Scale bar: 20 μm. f Immunofluorescence analysis of the HSP90 protein levels in 22Rv1 tumor tissues after treatment with PBS, P-AR, or Psa-AR (20 mg/kg in 200 μL of PBS) for 20 days. Scale bar: 20 μm. g Terminal deoxynucleotidyl transferase (TdT) dUTP nick-end labeling (TUNEL) staining of tumors after treatment with PBS, P-AR, or Psa-AR (20 mg/kg in 200 μL of PBS) for 20 days. […]

[1] = In vivo and ex vivo fluorescence imaging (biodistribution); parameters: species or system BALB/c nude mice; details: Cy7-labeled, 30 mg/kg intravenous
Description: Fig. 5 In vivo evaluation of Psa-AR enrichment and retention. a Representative immunohistochemical (IHC) staining of PSMA and AR expression in tumor tissues from three patients with prostate cancer before and after androgen deprivation therapy. The expression levels of PSMA and AR were assessed in serial sections at identical locations. Scale bars: 40 μm. b In vivo fluorescence images of 22Rv1 xenograft mice after treatment with Cy7-labeled P-AR and Psa-AR (30 mg/kg in 200 μL of PBS) for 2 h and 24 h. c Biodistribution in the tumors and main organs of 22Rv1 xenograft mice after injection with Cy7-labeled Psa-AR (30 mg/kg in 200 μL of PBS) for 24 h. (H Heart, Li Liver, Sp Spleen, Lu Lung, Ki Kidney, T Tumor). d Quantitative analysis of the fluorescence images in (c), n = 3 per group
BALB/c nude mice (6–8 weeks old, 16–18 g) were housed in a specific-pathogen-free (SPF) environment. All experiments were conducted in accordance with the Guidelines for the Management and Use of Laboratory Animals and were approved by the Animal Research Committee of the National Center for Nanoscience and Technology (NCNST 21-202503-0020). […] For ex vivo fluorescence imaging, 22Rv1 xenograft mice were intravenously injected with Cy7-labeled Psa-AR (30 mg/kg in 200 µL of PBS) and sacrificed 24 h post-injection to excise major organs (heart, liver, spleen, lung, and kidney) and tumors.

CC1(C)C(=O)N(c2ccc(C#N)c(C(F)(F)F)c2)C(=S)N1c1ccc(C(=O)NCCCC[C@H](NC(=O)CNc2cccc3c2C(=O)N(C2CCC(=O)NC2=O)C3=O)C(=O)N[C@@H](CS)C(=O)N[C@@H](CCC(N)=O)C(=O)N[C@@H](Cc2ccc(O)cc2)C(=O)N[C@@H](CC(N)=O)C(=O)N[C@@H](CCC(N)=O)C(=O)N[C@@H](Cc2ccc(O)cc2)C(=O)N[C@@H](Cc2ccc(O)cc2)C(=O)N[C@@H](Cc2ccc3ccccc3c2)C(=O)NCCCC[C@H](NC(=O)N[C@@H](CCC(=O)O)C(=O)O)C(=O)O)c(F)c1 (stereo partly shown) [Psa-AR] (H-[X1]K(X2)CQYNQYY[2Nal]-EuK)
extension of median survival compared with P-AR controls (22Rv1 xenograft tumor; 20 mg/kg study): 1.8 fold | extension of median survival compared with PBS controls (22Rv1 xenograft tumor; 20 mg/kg study): 2.2 fold | tumor volume (22Rv1 xenograft tumor; 20 mg/kg tail vein every other day, five cycles, 20 days, PBS 1003 mm^3): 347 mm^3 | TUNEL apoptotic index of tumor sections (22Rv1 xenograft tumor; 20 mg/kg, 20 days, compared with PBS control and P-AR): significant increase in the apoptotic index | AR and HSP90 protein expression in excised tumor tissues (22Rv1 xenograft tumor; IF, 20 mg/kg, 20 days): AR and HSP90 reduction | median survival (22Rv1 xenograft tumor; K-M analysis, 20 mg/kg study, PBS 22 days): 48 days | TUNEL analysis of tumor tissue sections (22Rv1 xenograft tumor; comparison study, 30 mg/kg, 20 days): increased activation of tumor apoptosis | tumor volume (22Rv1 xenograft tumor; comparison study, 20 days, Psa-AR 30 mg/kg i.v. every 2 days x5, enzalutamide 25 mg/kg, pimitespib 15 mg/kg, PBS 1017 mm^3): 220 mm^3 | median survival (22Rv1 xenograft tumor; comparison study, PBS 21 days): 46 days | body weight during the monitoring cycle (22Rv1 xenograft tumor; dose study, 10, 20, or 30 mg/kg, 20 days): no significant change in the body weight | mean tumor volume at 20 mg/kg (22Rv1 xenograft tumor; dose study, intravenous every 48 h, five cycles, 20 days): 536 mm^3 | tumor deposition relative to P-AR ([1]; 2 h, 22Rv1 xenograft mice): 4 fold | tumor retention, residual signal at 24 h ([1]; 24 h): 78%
